Assay: Inhibition of Burkholderia pseudomallei beta-CA incubated for 15 mins by stopped-flow CO2 hydration assay

Row | SMILES | Ki [mM]
1 | F[P-](F)(F)(F)(F)F.[Na+] | > 100
2 | OB(O)c1ccccc1 [PHENYLBORONIC ACID] | > 100
3 | [N-]=[N+]=[N-] [SODIUM AZIDE] | > 100
4 | O=S([O-])O.[Na+] [SODIUM BISULFITE] | > 100
5 | N#CO [SODIUM CYANATE] | 6.8
6 | [F-].[Na+] [SODIUM FLUORIDE] | > 100
7 | [O-][Cl+3]([O-])([O-])O [SODIUM PERCHLORATE] | > 100
8 | O=S(=O)(O)OOS(=O)(=O)O [SODIUM PERSULFATE] | > 100
9 | O=BOB(O)OB(O)OB=O [SODIUM TETRABORATE] | > 100
10 | F[B-](F)(F)F.[Na+] [SODIUM TETRAFLUOROBORATE] | > 100

— ChEMBL document CHEMBL4043124 (Bioorg Med Chem, 2017)
